According to patent US20240360148A1 (SUVALENT THERAPEUTICS, INC., priority 2021, published 2024):

Experiments:
SAE1 = SAE1 (Homo sapiens (Human), UniProt Q9UBE0+Q9UBT2); test: SAE High Throughput Biochemical Assay (HTRF), 15 min preincubation; settings: read-out: 15 min preincubation HTRF IC50 (μM) Ave, SAE1 12.5 nM, ATP 100 μM
Outline: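 HTRF detection of SUMO transfer from SUMO-GST to UBC9-His (40 nM each) by SAE1 at 12.5 nM used 100 μM ATP in pH 7.5 HEPES buffer with 10 mM MgCl2 and 0.1% BSA. Enzyme and compound were preincubated 15 min at RT and the reaction ran 45 min, with readings after 2 h and overnight.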

[1] = test system: sumoylation levels (SUMO 2/3 conjugates) in HCT-116 cells; test: HCT-116 4 Hour Cell Assay (Western, SUMO 2/3 conjugates); type: cell-based; settings: Homo sapiens, HCT-116, 4 h, 4 h treatment, Anti-Sumo 2-3 immunoblot, read-out: HCT-116 Western 4 h IC50 (μM) Ave
Experimental: This protocol describes the procedures used to assess the effects of compounds of interest on sumoylation levels. Immunoblot of SUMO 2/3 conjugates are performed and IC50 curves are generated upon quantification of sumoylations bands. HCT-116 cells are seeded in a 12 well plate (500,000 cells/well). The following day the cells are treated with compounds of interest (resuspended in DMSO) for 4 hours (11 concentrations with a three-fold dilution; starting concentration 25 μM) Following 4 hours of incubation the cells are washed with ice cold PBS 1×and protein extraction is performed with RIPA buffer supplemented with phosphatases and proteases inhibitors, 25 mM of NEM and 50 units/mL of Benzonase. Samples undergo centrifugation at 13,000 RPM, 4° C., for 10 minutes and the supernatant is collected. Protein quantification is performed using BCA. Non-Reducing Laemmli Buffer is added to the samples. Samples are heated at 75° C. for 10 minutes, and are centrifuged for 3 minutes at 9000 RPM Nupage 4-12% Bis Tris gels and 1× MOPS buffer (Fisher Scientific)+1× NuPAGE Antioxidant (Invitrogen) are used to perform the SDS-PAGE gel electrophoresis (20 to 40 μg of proteins are loaded in the gels). Proteins are then transferred to PVDF membranes and the level of total proteins are measured by staining with Revert Total Protein Stain and the fluorescent bands are acquired using the LI-COR FC (700 nm for 1 min) Membranes are blocked for 5 minutes with Bio-Rad Blocking Buffer and are subsequently incubated over night at 4° C. with Anti-Sumo 2-3 mAb (M BL #M114-3, 1:1000 in Bio-Rad Blocking Buffer, 0.2% Tween 20) Membranes are washed with 1×TBS-T (3 times for 5 minutes) and sumoylation is detected using Li-cor IRDye 800CW Goat anti-Mouse IgG secondary antibody (1:10,000 dilution) upon 1 hour of incubation in blocking buffer with 0.2% Tween 20 and 0.01% SDS. After the incubation, the membranes are washed with 1×TBS-T (3 times for 5 minutes). To visualize the fluorescent bands the membranes are scanned with LI-COR FC (700 nm for 1 min and […] for 2 mins). Sumoylation levels are quantified upon normalization with total protein levels, using the LI-COR Image Studio Lite 5.2 Software.

SAE1, sequence (Q9UBE0 whole entry): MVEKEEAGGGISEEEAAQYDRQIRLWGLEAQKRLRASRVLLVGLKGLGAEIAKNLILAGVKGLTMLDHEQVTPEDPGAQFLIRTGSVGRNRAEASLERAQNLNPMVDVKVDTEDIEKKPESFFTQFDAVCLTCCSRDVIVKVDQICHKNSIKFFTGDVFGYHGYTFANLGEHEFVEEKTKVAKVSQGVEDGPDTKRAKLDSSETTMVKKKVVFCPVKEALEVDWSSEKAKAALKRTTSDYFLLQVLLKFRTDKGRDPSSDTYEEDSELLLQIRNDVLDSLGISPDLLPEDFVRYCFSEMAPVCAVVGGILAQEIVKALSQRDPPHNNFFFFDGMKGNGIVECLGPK
SAE1, sequence (Q9UBT2 whole entry): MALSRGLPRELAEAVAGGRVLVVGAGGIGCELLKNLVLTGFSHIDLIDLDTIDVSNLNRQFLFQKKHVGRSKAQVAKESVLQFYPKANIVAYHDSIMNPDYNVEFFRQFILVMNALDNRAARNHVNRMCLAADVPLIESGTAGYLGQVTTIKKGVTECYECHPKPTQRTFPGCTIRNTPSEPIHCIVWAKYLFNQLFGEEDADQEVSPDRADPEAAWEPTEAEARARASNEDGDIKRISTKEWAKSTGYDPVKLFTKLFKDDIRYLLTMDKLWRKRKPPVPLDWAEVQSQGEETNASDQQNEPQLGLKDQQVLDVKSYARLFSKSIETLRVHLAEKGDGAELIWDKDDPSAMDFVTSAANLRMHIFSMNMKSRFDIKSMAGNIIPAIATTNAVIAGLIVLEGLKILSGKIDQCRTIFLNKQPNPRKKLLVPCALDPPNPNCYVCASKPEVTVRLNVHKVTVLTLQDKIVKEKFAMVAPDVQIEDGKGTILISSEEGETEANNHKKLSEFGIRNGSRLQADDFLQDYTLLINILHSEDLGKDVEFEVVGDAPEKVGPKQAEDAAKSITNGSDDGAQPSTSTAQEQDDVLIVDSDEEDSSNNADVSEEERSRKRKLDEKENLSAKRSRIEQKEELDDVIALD

Question: CCNC/C=C/C(=O)N1Cc2sc(C#N)cc2[C@H](c2cccc(F)c2-c2cn(CC)nc2C(F)(F)F)C1 [Example 100, (S, E)-4-(2-(1-Ethyl-3-(trifluoromethyl)-1 H-pyrazol-4-yl)-3-fluorophenyl)-6-(4-(ethylamino)but-2-enoyl)-4,5,6,7-tetrahydrothieno[2,3-c]pyridine-2-carbonitrile] was tested. Which IC50 (SAE1) did it give?
Answer: 1.38 µM

Question: What about the IC50 [1] of the same compound?
Answer: 0.174 µM

Question: Which IC50 (SAE1) does the source give for CCn1cc(-c2ccccc2[C@@H]2CN(C(=O)/C=C/CNC(C)(C)C)Cc3sc(C#N)cc32)c(C(F)(F)F)n1 [Example 101, (S, E)-6-(4-(tert-Butylamino)but-2-enoyl)-4-(2-(1-ethyl-3-(trifluoromethyl)-1 H-pyrazol-4-yl)phenyl)-4,5,6,7-tetrahydrothieno[2,3-c]pyridine-2-carbonitrile] here?
Answer: 2.24 µM

Question: What about the IC50 [1] of the same compound?
Answer: 0.732 µM

Question: What does the source list for CCn1cc(-c2ccccc2[C@@H]2CN(C(=O)/C=C/CNC3CC3)Cc3sc(C#N)cc32)c(C(F)(F)F)n1 [Example 102, (S, E)-6-(4-(Cyclopropylamino)but-2-enoyl)-4-(2-(1-ethyl-3-(trifluoromethyl)-1 H-pyrazol-4-yl)phenyl)-4,5,6,7-tetrahydrothieno[2,3-c]pyridine-2-carbonitrile]?
Answer: IC50 (SAE1): 1.74 µM; IC50 [1]: 0.675 µM

Question: Which IC50 (SAE1) does the source give for CCCCNC/C=C/C(=O)N1Cc2sc(C#N)cc2[C@H](c2ccccc2-c2cn(CC)nc2C(F)(F)F)C1 [Example 103, (S, E)-6-(4-(Butylamino)but-2-enoyl)-4-(2-(1-ethyl-3-(trifluoromethyl)-1 H-pyrazol-4-yl)phenyl)-4,5,6,7-tetrahydrothieno[2,3-c]pyridine-2-carbonitrile] here?
Answer: 2.66 µM

Question: And the IC50 [1]?
Answer: 1.66 µM

Question: How did the IC50 (SAE1) turn out when CCn1cc(-c2ccccc2[C@@H]2CN(C(=O)/C=C/CNCC(C)C)Cc3sc(C#N)cc32)c(C(F)(F)F)n1 [Example 104] was run?
Answer: 2.14 µM

Question: What about the IC50 [1] of the same compound?
Answer: 1.78 µM

Question: Which IC50 (SAE1) does the source give for CCn1cc(-c2ccccc2[C@@H]2CN(C(=O)/C=C/CNC(C)C)Cc3sc(C#N)cc32)c(C(F)(F)F)n1 [Example 105, (S,E)-4-(2-(1-Ethyl-3-(trifluoromethyl)-1 H-pyrazol-4-yl)phenyl)-6-(4-(isopropylamino)but-2-enoyl)-4,5,6,7-tetrahydrothieno[2,3-c]pyridine-2-carbonitrile] here?
Answer: 2.42 µM

Question: What about the IC50 [1] of the same compound?
Answer: 0.62 µM

Question: How did the IC50 (SAE1) turn out when CCn1cc(-c2c(F)cccc2[C@@H]2CN(C(=O)/C=C/CNC(C)C)Cc3sc(C#N)cc32)c(C(F)(F)F)n1 [Example 106, (S,E)-4-(2-(1-Ethyl-3-(trifluoromethyl)-1H pyrazol-4-yl)-3-fluorophenyl)-6-(4-(isopropylamino)but-2-enoyl)-4,5,6,7-tetrahydrothieno[2,3-c]pyridine-2-carbonitrile] was run?
Answer: 0.8 µM

Question: And the IC50 [1]?
Answer: 0.283 µM

Question: Which results are given for CCn1cc(-c2ccccc2[C@@H]2CN(C(=O)/C=C/C3CCCN3)Cc3sc(C#N)cc32)c(C(F)(F)F)n1 (stereo partly drawn) [Example 107, (4S)-4-(2-(1-Ethyl-3-(trifluoromethyl)-1 H-pyrazol-4-yl)phenyl)-6-((E)-3-(pyrrolidin-2-yl)acryloyl)-4,5,6,7-tetrahydrothieno[2,3-c]pyridine-2-carbonitrile]?
Answer: IC50 (SAE1): 2.07 µM; IC50 [1]: 0.226 µM

Question: What does the source list for CCn1cc(-c2ccccc2[C@@H]2CN(C(=O)/C=C/C3CCCCN3)Cc3sc(C#N)cc32)c(C(F)(F)F)n1 (stereo partly drawn) [Example 111, (4S)-4-(2-(1-Ethyl-3-(trifluoromethyl)-1H pyrazol-4-yl)phenyl)-6-((E)-3-(piperidin-2-yl)acryloyl)-4,5,6,7-tetrahydrothieno[2,3-c]pyridine-2-carbonitrile]?
Answer: IC50 (SAE1): 3.36 µM; IC50 [1]: 0.909 µM

Question: For CCn1cc(-c2ccccc2[C@@H]2CN(C(=O)/C=C/[C@@H]3CCCN3)Cc3sc(C#N)cc32)c(C(F)(F)F)n1 [Example 112], which IC50 (SAE1) is on record?
Answer: 0.76 µM

Question: And the IC50 [1]?
Answer: 0.209 µM

Question: How did the IC50 (SAE1) turn out when CCn1cc(-c2ccccc2[C@@H]2CN(C(=O)/C=C/[C@H]3CCCN3)Cc3sc(C#N)cc32)c(C(F)(F)F)n1 [Example 113, (S)-4-(2-(1-Ethyl-3-(trifluoromethyl)-1 H-pyrazol-4-yl)phenyl)-6-((E)-3-((R)-pyrrolidin-2-yl)acryloyl)-4,5,6,7-tetrahydrothieno[2,3-c]pyridine-2-carbonitrile] was run?
Answer: 1.61 µM

Question: And the IC50 [1]?
Answer: 1.79 µM

Question: What does the source list for CCn1cc(-c2ccccc2[C@@H]2CN(C(=O)/C=C/[C@@H]3C[C@@H](C)CN3)Cc3sc(C#N)cc32)c(C(F)(F)F)n1 [Example 114, (S)-4-(2-(1-Ethyl-3-(trifluoromethyl)-1 H-pyrazol-4-yl)phenyl)-6-((E)-3-((2S, 4R)-4-methylpyrrolidin-2-yl)acryloyl)-4,5,6,7-tetrahydrothieno[2,3-c]pyridine-2-carbonitrile]?
Answer: IC50 (SAE1): 1.19 µM; IC50 [1]: 0.262 µM

Question: Which results are given for CCn1cc(-c2ccccc2[C@@H]2CN(C(=O)/C=C/[C@@H]3CCCCN3)Cc3sc(C#N)cc32)c(C(F)(F)F)n1 [Example 115, (S)-4-(2-(1-Ethyl-3-(trifluoromethyl)-1H pyrazol-4-yl)phenyl)-6-((E)-3-((S)-piperidin-2-yl)acryloyl)-4,5,6,7-tetrahydrothieno[2,3-c]pyridine-2-carbonitrile]?
Answer: IC50 (SAE1): 1.95 µM; IC50 [1]: 0.6 µM

Question: How did the IC50 (SAE1) turn out when CCn1cc(-c2ccccc2[C@@H]2CN(C(=O)/C=C/[C@@H]3CC4(CC4)CN3)Cc3sc(C#N)cc32)c(C(F)(F)F)n1 [Example 116, (S)-6-((E)-3-((S)—S-Azaspiro(2.4]heptan-6-yl)acryloyl)-4-(2-(1-ethyl-3-(trifluoromethyl)-1H pyrazol-4-yl)phenyl)-4,5,6,7-tetrahydrothieno[2,3-c]pyridine-2-carbonitrile] was run?
Answer: 1.49 µM

Question: What about the IC50 [1] of the same compound?
Answer: 0.202 µM

Question: What does the source list for CCn1cc(-c2ccccc2[C@@H]2CN(C(=O)/C=C/[C@@H]3C[C@@H]4C[C@@H]4N3)Cc3sc(C#N)cc32)c(C(F)(F)F)n1 [Example 117, (S)-6-((E)-3-((1S,3S,5S)-2-Azabicyclo[3.1.0]hexan-3-yl)acryloyl)-4-(2-(1-ethyl-3-(trifluoromethyl)-1H pyrazol-4-yl)phenyl)-4,5,6,7-tetrahydrothieno[2,3-c]pyridine-2-carbonitrile]?
Answer: IC50 (SAE1): 1.16 µM; IC50 [1]: 0.427 µM

Question: With CCn1cc(-c2c(F)cccc2[C@@H]2CN(C(=O)/C=C/[C@@H]3C[C@H](OC)CN3)Cc3sc(C#N)cc32)c(C(F)(F)F)n1 [Example 119, (S)-4-(2-(1-Ethyl-3-(trifluoromethyl)-1H pyrazol-4-yl)-3-fluorophenyl)-6-((E)-3-((2S,4S)-4-methoxypyrrolidin-2-yl)acryloyl)-4,5,6,7-tetrahydrothieno[2,3-c]pyridine-2-carbonitrile] as the compound, how does the IC50 (SAE1) read?
Answer: 0.44 µM

Question: And the IC50 [1]?
Answer: 0.121 µM

Question: What does the source list for CCn1cc(-c2c(F)cccc2[C@@H]2CN(C(=O)/C=C/[C@@H]3C[C@@H](OC)CN3)Cc3sc(C#N)cc32)c(C(F)(F)F)n1 [Example 120, (S)-4-(2-(1-Ethyl-3-(trifluoromethyl)-1H pyrazol-4-yl)-3-fluorophenyl)-6-((E)-3-((2S,4R)-4-methoxypyrrolidin-2-yl)acryloyl)-4,5,6,7-tetrahydrothieno[2,3-c]pyridine-2-carbonitrile]?
Answer: IC50 (SAE1): 0.31 µM; IC50 [1]: 0.383 µM

Question: What does the source list for CCn1cc(-c2c(F)cccc2[C@@H]2CN(C(=O)/C=C/[C@@H]3C[C@@H](F)CN3)Cc3sc(C#N)cc32)c(C(F)(F)F)n1 [Example 121, (S)-4-(2-(1-Ethyl-3-(trifluoromethyl)-1H pyrazol-4-yl)-3-fluorophenyl)-6-((E)-3-((2S,4R)-4-fluoropyrrolidin-2-yl)acryloyl)-4,5,6,7-tetrahydrothieno[2,3-c]pyridine-2-carbonitrile]?
Answer: IC50 (SAE1): 0.43 µM; IC50 [1]: 0.577 µM

Question: What does the source list for CCn1cc(-c2c(F)cccc2[C@@H]2CN(C(=O)/C=C/[C@@H]3C[C@H](F)CN3)Cc3sc(C#N)cc32)c(C(F)(F)F)n1 [Example 122, (S)-4-(2-(1-Ethyl-3-(trifluoromethyl)-1H pyrazol-4-yl)-3-fluorophenyl)-6-((E)-3-((2S,4S)-4-fluoropyrrolidin-2-yl)acryloyl)-4,5,6,7-tetrahydrothieno[2,3-c]pyridine-2-carbonitrile]?
Answer: IC50 (SAE1): 0.12 µM; IC50 [1]: 0.0631 µM
